# Active and inactive are the calls of the source. The rule behind the calls is not given here.
# Assays:
# [1] = tested on: HCT-116; assay: Antiproliferative activity against human HCT-116 cells assessed as reduction in cell viability after 72 hrs by MTT assay; format: functional, cell-based; settings: HCT-116, 72 h
# [2] = target: Histone deacetylase 2 (Homo sapiens, UniProt Q92769); assay: Inhibition of recombinant human C-terminal His-tagged HDAC2 (1 to end residues) expressed in sf9 insect cells using Boc-Lys(Ac)-AMC as substrate incubated for 60 mins by fluorescence assay
# [3] = target: T1, Histone deacetylase 8 (Homo sapiens, UniProt Q9BY41); assay: Inhibition of recombinant human full length C-terminal His-tagged HDAC8 expressed in sf9 insect cells using Boc-Lys(TFA)-AM as substrate incubated for 60 mins by fluorescence assay
# T1 sequence (Q9BY41 whole entry): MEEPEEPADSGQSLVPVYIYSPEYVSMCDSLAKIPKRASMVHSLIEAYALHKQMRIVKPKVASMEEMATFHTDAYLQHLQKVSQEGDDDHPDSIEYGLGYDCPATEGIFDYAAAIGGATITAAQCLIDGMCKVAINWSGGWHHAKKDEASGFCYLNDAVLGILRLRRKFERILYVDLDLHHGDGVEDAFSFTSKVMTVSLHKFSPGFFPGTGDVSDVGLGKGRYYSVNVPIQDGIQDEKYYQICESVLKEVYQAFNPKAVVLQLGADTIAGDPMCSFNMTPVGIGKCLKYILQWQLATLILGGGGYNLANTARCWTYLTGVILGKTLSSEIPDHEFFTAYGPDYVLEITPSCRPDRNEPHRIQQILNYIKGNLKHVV
# [4] = tested on: HeLa; assay: cells; format: functional, cell-based; settings: Homo sapiens, 72 h
# Description: Antiproliferative activity against human HeLa cells assessed as reduction in cell viability after 72 hrs by MTT assay
# [5] = tested on: MCF7; assay: cells; settings: Homo sapiens, MCF7, 72 h
# Description: Antiproliferative activity against human MCF7 cells assessed as reduction in cell viability after 72 hrs by MTT assay
# [6] = target: Histone deacetylase 1 (Homo sapiens, UniProt Q13547); assay: Inhibition of recombinant human C-terminal His/FLAG-tagged HDAC1 (1 to end residues) expressed in sf9 insect cells using Boc-Lys(Ac)-AMC as substrate incubated for 60 mins by fluorescence assay
# [7] = tested on: HCT-116; assay: Induction of apoptosis in human HCT-116 cells assessed as necrotic cells at 3 uM after 24 hrs by Annexin V-FITC/PI staining based flow cytometric analysis (reference value: 0.51%); format: functional
# [8] = tested on: HCT-116; assay: Induction of cell cycle arrest in human HCT116 cells assessed as cell accumulation at G0/G1 phase at 3 uM after 24 hrs by Rnase/PI staining based flow cytometric analysis (reference value: 48.4%); format: functional
# [9] = tested on: HCT-116; assay: Induction of apoptosis in human HCT-116 cells assessed as late apoptotic cells at 1 uM after 24 hrs by Annexin V-FITC/PI staining based flow cytometric analysis (reference value: 5.14%); format: functional
# [10] = tested on: HCT-116; assay: Induction of cell cycle arrest in human HCT116 cells assessed as cell accumulation at G2/M phase at 3 uM after 24 hrs by Rnase/PI staining based flow cytometric analysis (reference value: 26.4%); format: functional
# [11] = tested on: HCT-116; assay: Induction of apoptosis in human HCT-116 cells assessed as early apoptotic cells at 3 uM after 24 hrs by Annexin V-FITC/PI staining based flow cytometric analysis (reference value: 4.01%); format: functional
# [12] = tested on: HCT-116; assay: Induction of apoptosis in human HCT-116 cells assessed as necrotic cells at 10 uM after 24 hrs by Annexin V-FITC/PI staining based flow cytometric analysis (reference value: 0.51%); format: functional
# [13] = tested on: HCT-116; assay: Induction of apoptosis in human HCT-116 cells assessed as late apoptotic cells at 10 uM after 24 hrs by Annexin V-FITC/PI staining based flow cytometric analysis (reference value: 5.14%); format: functional
# [14] = tested on: HCT-116; assay: Induction of cell cycle arrest in human HCT116 cells assessed as cell accumulation at S phase at 3 uM after 24 hrs by Rnase/PI staining based flow cytometric analysis (reference value: 25.2%); format: functional
# [15] = tested on: HCT-116; assay: Induction of apoptosis in human HCT-116 cells assessed as viable cells at 1 uM after 24 hrs by Annexin V-FITC/PI staining based flow cytometric analysis (reference value: 90.34%); format: functional; settings: for viability at 1 µM: Homo sapiens, HCT-116, read-out: Activity
# [16] = tested on: HCT-116; assay: Induction of apoptosis in human HCT-116 cells assessed as late apoptotic cells at 3 uM after 24 hrs by Annexin V-FITC/PI staining based flow cytometric analysis (reference value: 5.14%); format: functional
# [17] = tested on: HCT-116; assay: Induction of apoptosis in human HCT-116 cells assessed as viable cells at 3 uM after 24 hrs by Annexin V-FITC/PI staining based flow cytometric analysis (reference value: 90.34%); format: functional; settings: for viability at 3 µM: Homo sapiens, HCT-116, read-out: Activity
# [18] = tested on: HCT-116; assay: Induction of apoptosis in human HCT-116 cells assessed as early apoptotic cells at 10 uM after 24 hrs by Annexin V-FITC/PI staining based flow cytometric analysis (reference value: 4.01%); format: functional
# [19] = tested on: HCT-116; assay: Induction of apoptosis in human HCT-116 cells assessed as early apoptotic cells at 1 uM after 24 hrs by Annexin V-FITC/PI staining based flow cytometric analysis (reference value: 4.01%); format: functional
# [20] = tested on: HCT-116; assay: Inhibition of HDAC in human HCT-116 cells assessed as up regulation of acetylated tubulin protein expression at 1.25 to 10 uM after 8 hrs by Western blot analysis; format: cell-based; settings: dose 1.25-10 µM
# [21] = tested on: HCT-116; assay: Induction of apoptosis in human HCT-116 cells after 24 hrs by Annexin V-FITC/PI staining based flow cytometric analysis; format: functional, cell-based
# [22] = tested on: HCT-116; assay: Inhibition of HDAC in human HCT-116 cells assessed as up regulation of acetylated histone H3 protein expression at 1.25 to 10 uM after 8 hrs by Western blot analysis; format: cell-based; settings: dose 1.25-10 µM
# [23] = tested on: HCT-116; assay: Induction of apoptosis in human HCT-116 cells assessed as necrotic cells at 1 uM after 24 hrs by Annexin V-FITC/PI staining based flow cytometric analysis (reference value: 0.51%); format: functional
# [24] = tested on: HCT-116; assay: Induction of apoptosis in human HCT-116 cells assessed as viable cells at 10 uM after 24 hrs by Annexin V-FITC/PI staining based flow cytometric analysis (reference value: 90.34%); format: functional; settings: read-out: Activity
# Histone deacetylase 2, sequence (Q92769 whole entry): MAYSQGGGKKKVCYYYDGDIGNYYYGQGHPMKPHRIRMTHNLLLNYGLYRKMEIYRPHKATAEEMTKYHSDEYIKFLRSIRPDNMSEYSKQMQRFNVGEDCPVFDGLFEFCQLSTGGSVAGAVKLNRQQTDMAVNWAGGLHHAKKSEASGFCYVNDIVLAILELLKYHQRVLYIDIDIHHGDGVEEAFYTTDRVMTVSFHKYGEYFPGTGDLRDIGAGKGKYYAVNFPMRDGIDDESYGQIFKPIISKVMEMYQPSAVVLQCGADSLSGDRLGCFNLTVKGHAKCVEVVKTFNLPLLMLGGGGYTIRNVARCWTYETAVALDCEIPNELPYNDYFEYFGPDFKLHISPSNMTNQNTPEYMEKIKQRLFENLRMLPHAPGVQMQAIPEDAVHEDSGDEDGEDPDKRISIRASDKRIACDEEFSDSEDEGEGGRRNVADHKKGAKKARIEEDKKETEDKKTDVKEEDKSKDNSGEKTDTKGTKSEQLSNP
# Histone deacetylase 1, sequence (Q13547 whole entry): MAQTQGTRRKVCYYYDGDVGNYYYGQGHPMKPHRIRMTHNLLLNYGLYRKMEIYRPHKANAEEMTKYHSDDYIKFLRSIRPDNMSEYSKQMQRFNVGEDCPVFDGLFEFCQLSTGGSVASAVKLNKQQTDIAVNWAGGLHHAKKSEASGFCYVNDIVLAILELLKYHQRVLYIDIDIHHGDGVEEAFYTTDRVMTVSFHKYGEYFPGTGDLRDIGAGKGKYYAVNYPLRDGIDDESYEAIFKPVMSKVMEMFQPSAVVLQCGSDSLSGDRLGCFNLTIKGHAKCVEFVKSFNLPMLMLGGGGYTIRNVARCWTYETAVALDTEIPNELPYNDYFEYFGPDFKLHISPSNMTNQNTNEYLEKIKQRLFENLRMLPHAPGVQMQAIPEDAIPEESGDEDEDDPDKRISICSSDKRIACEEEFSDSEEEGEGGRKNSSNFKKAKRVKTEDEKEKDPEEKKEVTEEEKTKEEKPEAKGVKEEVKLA
IC50 [1],IC50 [2],IC50 [3],IC50 [4],IC50 [5],IC50 [6],Structure (SMILES),further results
7500 nM,3.5 nM,4.9 nM,3300 nM,4900 nM,3 nM,COc1ccc(F)c(-c2ccc3c(NC(=O)CCCCCCC(=O)NO)n[nH]c3c2)c1,
23500 nM,62 nM,41 nM,5800 nM,4400 nM,13 nM,COc1cccc(-c2ccc3c(NC(=O)CCCCC(=O)NO)n[nH]c3c2)c1,
10200 nM,13.1 nM,12.6 nM,12500 nM,5500 nM,9.6 nM,O=C(CCCCCCC(=O)Nc1n[nH]c2cc(-c3ccccc3)ccc12)NO,
8100 nM,3.9 nM,3 nM,3000 nM,19100 nM,1.9 nM,COc1cccc(-c2ccc3c(NC(=O)CCCCCCC(=O)NO)n[nH]c3c2)c1,
4100 nM,4.4 nM,2.4 nM,13800 nM,2500 nM,1.8 nM,O=C(CCCCCCC(=O)Nc1n[nH]c2cc(-c3ccccc3F)ccc12)NO,
14600 nM,4.6 nM,3.2 nM,21300 nM,10900 nM,3.4 nM,COc1ccc(-c2ccc3c(NC(=O)CCCCCCC(=O)NO)n[nH]c3c2)cc1OC,
7600 nM,6 nM,4.4 nM,9800 nM,2000 nM,3.1 nM,COc1cccc(-c2ccc3c(NC(=O)CCCCCCC(=O)NO)n[nH]c3c2)c1F,
2700 nM,5.4 nM,4.2 nM,5900 nM,5700 nM,4.6 nM,COc1ccccc1-c1ccc2c(NC(=O)CCCCCCC(=O)NO)n[nH]c2c1,
9500 nM,4.8 nM,4.4 nM,7300 nM,55200 nM,4.6 nM,COc1cc(OC)cc(-c2ccc3c(NC(=O)CCCCCCC(=O)NO)n[nH]c3c2)c1,
41800 nM,4 nM,3.8 nM,200 nM,27500 nM,3.7 nM,O=C(CCCCCCC(=O)Nc1n[nH]c2cc(-c3cccc(Cl)c3)ccc12)NO,
4900 nM,,,,800 nM,,O=C(CCCCCCC(=O)Nc1ccccc1)NO [VORINOSTAT],Activity [7]: 2.03%; Activity [8]: 26.2%; Activity [9]: 57.83%; Activity [10]: 44.2%; Activity [11]: 12.27%; Activity [12]: 1.37%; Activity [13]: 67.72%; Activity [14]: 29.4%; Activity [15]: 77.54%; Activity [16]: 67.78%; Activity [17]: 17.93%; Activity [18]: 14.44%; Activity [19]: 12.87%
2900 nM,5 nM,4.1 nM,6000 nM,47300 nM,2.5 nM,O=C(CCCCCCC(=O)Nc1n[nH]c2cc(-c3cccc(C(F)(F)F)c3)ccc12)NO,
7500 nM,31.6 nM,32.5 nM,29500 nM,8300 nM,36.2 nM,O=C(CCCCCCC(=O)Nc1n[nH]c2cc(-c3ccsc3)ccc12)NO,
> 50000 nM,168 nM,54 nM,> 50000 nM,41500 nM,76 nM,COc1cccc(-c2ccc3c(NC(=O)CCCC(=O)NO)n[nH]c3c2)c1,
2600 nM,5.2 nM,4 nM,8100 nM,2200 nM,2.7 nM,O=C(CCCCCCC(=O)Nc1n[nH]c2cc(-c3ccccc3Cl)ccc12)NO,
47400 nM,4630 nM,3340 nM,> 50000 nM,> 50000 nM,2420 nM,COc1cccc(-c2ccc3c(NC(=O)C4CCC(C(=O)NO)CC4)n[nH]c3c2)c1 (stereo unspecified),
2700 nM,5.3 nM,3.3 nM,3600 nM,8600 nM,2.4 nM,COc1cccc(-c2ccc3c(NC(=O)CCCCCCC(=O)NO)n[nH]c3n2)c1,
2100 nM,4.2 nM,3.6 nM,4400 nM,900 nM,2.7 nM,COc1ccc(-c2ccc3c(NC(=O)CCCCCCC(=O)NO)n[nH]c3c2)cc1,inhibition [20]: Active; Activity [7]: 0.33%; Activity [8]: 29.8%; Activity [9]: 40.02%; Activity [10]: 43.3%; Activity [11]: 13.72%; Activity [12]: 1.19%; Activity [13]: 62.58%; Activity [21]: Dose-dependent effect; Activity [14]: 26.9%; viability at 1 µM [15]: 42.4%; Activity [16]: 54.58%; viability at 3 µM [17]: 31.4%; inhibition [22]: Active; Activity [23]: 0.27%; Activity [18]: 15.64%; viability at 10 µM [24]: 20.6%; Activity [19]: 17.34%
10600 nM,63 nM,4.5 nM,20100 nM,7400 nM,2.6 nM,COc1cccc(-c2ccc3c(NC(=O)CCCCCC(=O)NO)n[nH]c3c2)c1,
4100 nM,9 nM,7.2 nM,4800 nM,1200 nM,6 nM,COc1ccc(-c2ccc3c(NC(=O)CCCCCCC(=O)NO)n[nH]c3n2)cc1,inhibition [20]: Active; Activity [7]: 0.24%; Activity [8]: 50%; Activity [9]: 5.52%; Activity [10]: 23.9%; Activity [11]: 2.89%; Activity [12]: 1.1%; Activity [13]: 13.34%; Activity [14]: 26.1%; viability at 1 µM [15]: 91.8%; Activity [16]: 7.8%; viability at 3 µM [17]: 89.1%; inhibition [22]: Active; Activity [23]: 0.31%; Activity [18]: 5.75%; viability at 10 µM [24]: 79.8%; Activity [19]: 2.34%
12300 nM,25.9 nM,24.5 nM,6900 nM,40100 nM,23 nM,O=C(CCCCCCC(=O)Nc1n[nH]c2cc(-c3ccncc3)ccc12)NO,
4200 nM,4.2 nM,3.4 nM,10800 nM,2400 nM,2.1 nM,CCOc1cccc(-c2ccc3c(NC(=O)CCCCCCC(=O)NO)n[nH]c3c2)c1,

# — ChEMBL document CHEMBL4765277, “Design, synthesis and biological evaluation of novel indazole-based derivatives as potent HDAC inhibitors via fragment-based virtual screening” (Eur J Med Chem, 2020)
